Laboratory results: BindingDB's records for doi:10.1016/s0960-894x(98)00019-5 (Abbott Laboratories, 1999)

Assay: Inhibitory concentration to antagonise cation efflux in nAChR subtype human alpha3betaX, expressed in IMR-32 cells

Row | SMILES | IC50
1 | CCCCc1cncc(OC[C@@H]2CCCN2C)c1 [3-Butyl-5-((S)-1-methyl-pyrrolidin-2-ylmethoxy)-pyridine] | 5 µM
2 | CCCc1cncc(OC[C@@H]2CCCN2C)c1 [3-((S)-1-Methyl-pyrrolidin-2-ylmethoxy)-5-propyl-pyridine] | 3.2 µM
